“Also recorded” adds a separate entry of the source. Where two headings read alike, the source gives them in different places.
Key:
hERG channel = hERG channel (Homo sapiens, UniProt Q12809); experiment: hERG off-target test; conditions: Figure S3C
[1] = In vitro microsomal stability assay; format: in vitro ADME; conditions: pH 7.4; human liver microsomes; read-out: half-life after incubation with human microsomes
Method: 10 mM DMSO stock solution of each compound was pre-incubated at 37°C for 15 min with liver microsomes from all the three species (mouse, rat, human) in 0.1M Tris-HCl buffer (pH 7.4). The final concentration was 4.6 μM. After pre-incubation, the co-factors (NADPH, G6P, G6PDH and MgCl2 pre-dissolved in 0.1M Tris-HCl) were added to the mixture and the incubation was continued at 37°C for 1 h. […] The supernatant was then further diluted with H2O (1:1) for analysis. […] The percentage of test compound remaining at each time point relative to the amount observed at t = 0 was calculated. The half-lives (t½) were determined by a one-phase decay equation using a non-linear regression of compound concentration versus time.

HT-1080 = experiment: cells; conditions: Homo sapiens, HT-1080, read-out: IC50 ARN22089
Summary of the method: (§1)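 Luminescent ATP-based CellTiterGlo detection quantifies surviving cells. Treatment with compound lasts overnight at 37°C.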

NCI-H1573 = experiment: cells; conditions: Homo sapiens, NCI-H1573, read-out: IC50 ARN22089
Summary of the method: as §1

Colo 205 = experiment: cells; conditions: Homo sapiens, COLO 205, read-out: IC50 ARN22089
Summary of the method: as §1

MOLT-4 = experiment: cells; conditions: Homo sapiens, MOLT-4, read-out: IC50 ARN22089
Summary of the method: as §1

SK-N-SH = experiment: cells; conditions: Homo sapiens, read-out: IC50 ARN22089
Summary of the method: as §1

Ishikawa = experiment: cells; conditions: Homo sapiens, read-out: IC50 ARN22089
Summary of the method: as §1

WM3248 = experiment: cells; conditions: Homo sapiens, WM3248, read-out: IC50 WM3248
Summary of the method: as §1

HL-60 = experiment: cells; conditions: Homo sapiens, HL-60, read-out: IC50 ARN22089
Summary of the method: as §1

MKN-1 = experiment: cells; conditions: Homo sapiens, MKN-1, read-out: IC50 ARN22089
Summary of the method: as §1

U-937 = experiment: cells; conditions: Homo sapiens, U-937, read-out: IC50 ARN22089
Summary of the method: as §1

PC3 = experiment: cells; conditions: Homo sapiens, PC-3, read-out: IC50 ARN22089
Summary of the method: as §1

AsPC-1 = experiment: cells; conditions: Homo sapiens, ASPC1, read-out: IC50 ARN22089
Summary of the method: as §1

A498 = experiment: cells; conditions: Homo sapiens, A498, read-out: IC50 ARN22089
Summary of the method: as §1

NCI-H1437 = experiment: cells; conditions: Homo sapiens, NCI-H1437, read-out: IC50 ARN22089
Summary of the method: as §1

MCAS = experiment: cells; conditions: read-out: IC50 ARN22089
Summary of the method: as §1

SK-ES-1 = experiment: cells; conditions: Homo sapiens, SK-ES1, read-out: IC50 ARN22089
Summary of the method: as §1

KG-1 = experiment: cells; conditions: Homo sapiens, KG-1, read-out: IC50 ARN22089
Summary of the method: as §1

HCT-15 = experiment: cells; conditions: Homo sapiens, HCT-15, read-out: IC50 ARN22089
Summary of the method: as §1

MDAMB435 = experiment: cells; conditions: Homo sapiens, MDA-MB-435, read-out: IC50 ARN22089
Summary of the method: as §1

LOVO = experiment: cells; conditions: Homo sapiens, read-out: IC50 ARN22089
Summary of the method: as §1

LnCap = experiment: cells; conditions: Homo sapiens, read-out: IC50 ARN22089
Summary of the method: as §1

A375 = experiment: cells; conditions: Homo sapiens
Summary of the method: as §1

SK-N-FI = experiment: cells; conditions: Homo sapiens, read-out: IC50 ARN22089
Summary of the method: as §1

SK-OV3 = experiment: cells; conditions: Homo sapiens, SK-OV-3, read-out: IC50 ARN22089
Summary of the method: as §1

Saos-2 EC = experiment: cells; conditions: Homo sapiens, SAOS-2, read-out: IC50 ARN22089
Summary of the method: as §1

MiaPaCA2 = experiment: cells; conditions: Homo sapiens, MIA PaCa-2, read-out: IC50 ARN22089
Summary of the method: as §1

NCI-H838 = experiment: cells; conditions: Homo sapiens, NCI-H838, read-out: IC50 ARN22089
Summary of the method: as §1

A172 = experiment: cells; conditions: Homo sapiens, A 172, read-out: IC50 ARN22089
Summary of the method: as §1

NCI-H1703 = experiment: cells; conditions: Homo sapiens, NCI-H1703, read-out: IC50 ARN22089
Summary of the method: as §1

COR-L279 = experiment: cells; conditions: Homo sapiens, COR-L279, read-out: IC50 ARN22089
Summary of the method: as §1

HEC-1-B = experiment: cells; conditions: Homo sapiens, read-out: IC50 ARN22089
Summary of the method: as §1

RKO = experiment: cells; conditions: Homo sapiens, read-out: IC50 ARN22089
Summary of the method: as §1

PK determination = conditions: mice
Method: The vehicle for all administration routes was PEG400/Tween 80/Saline solution at 10/10/80% in volume, respectively. […] Control animals treated with vehicle only were also included in the experimental protocol. […] A 50 μL aliquot was transferred into a 96-Deep Well plate and 150 μL of extraction solution was added. The extraction solution was consisting of cold CH3CN spiked with 200 nM of internal standard. […] Eight microliters of supernatant were then transferred into a 96-Deep Well plate and 80μL of H2O was added. A reference standard of the compound was spiked in naïve mouse plasma to prepare a calibration curve over a 1 nM – 10 μM range. […] Calibrators and quality controls were extracted with the same extraction solution used for the plasma samples. The samples were analyzed on a Waters ACQUITY UPLC/MS TQD system (Waters Inc. Milford, USA) consisting of a TQD (Triple Quadrupole Detector) Mass Spectrometer equipped with an Electrospray Ionization interface and a Photodiode Array eλ Detector. […] 0.1% HCOOH in H2O (A) and 0.1% HCOOH in CH3CN (B) were used as mobile phase with a linear gradient from 50 to 100% B in 2 min with the flow rate set to 0.5 mL/min. Electrospray ionization was applied in positive mode. Plasma levels of the parent compound was quantified by monitoring the MRM peak areas.

hERG channel, sequence (Q12809 whole entry): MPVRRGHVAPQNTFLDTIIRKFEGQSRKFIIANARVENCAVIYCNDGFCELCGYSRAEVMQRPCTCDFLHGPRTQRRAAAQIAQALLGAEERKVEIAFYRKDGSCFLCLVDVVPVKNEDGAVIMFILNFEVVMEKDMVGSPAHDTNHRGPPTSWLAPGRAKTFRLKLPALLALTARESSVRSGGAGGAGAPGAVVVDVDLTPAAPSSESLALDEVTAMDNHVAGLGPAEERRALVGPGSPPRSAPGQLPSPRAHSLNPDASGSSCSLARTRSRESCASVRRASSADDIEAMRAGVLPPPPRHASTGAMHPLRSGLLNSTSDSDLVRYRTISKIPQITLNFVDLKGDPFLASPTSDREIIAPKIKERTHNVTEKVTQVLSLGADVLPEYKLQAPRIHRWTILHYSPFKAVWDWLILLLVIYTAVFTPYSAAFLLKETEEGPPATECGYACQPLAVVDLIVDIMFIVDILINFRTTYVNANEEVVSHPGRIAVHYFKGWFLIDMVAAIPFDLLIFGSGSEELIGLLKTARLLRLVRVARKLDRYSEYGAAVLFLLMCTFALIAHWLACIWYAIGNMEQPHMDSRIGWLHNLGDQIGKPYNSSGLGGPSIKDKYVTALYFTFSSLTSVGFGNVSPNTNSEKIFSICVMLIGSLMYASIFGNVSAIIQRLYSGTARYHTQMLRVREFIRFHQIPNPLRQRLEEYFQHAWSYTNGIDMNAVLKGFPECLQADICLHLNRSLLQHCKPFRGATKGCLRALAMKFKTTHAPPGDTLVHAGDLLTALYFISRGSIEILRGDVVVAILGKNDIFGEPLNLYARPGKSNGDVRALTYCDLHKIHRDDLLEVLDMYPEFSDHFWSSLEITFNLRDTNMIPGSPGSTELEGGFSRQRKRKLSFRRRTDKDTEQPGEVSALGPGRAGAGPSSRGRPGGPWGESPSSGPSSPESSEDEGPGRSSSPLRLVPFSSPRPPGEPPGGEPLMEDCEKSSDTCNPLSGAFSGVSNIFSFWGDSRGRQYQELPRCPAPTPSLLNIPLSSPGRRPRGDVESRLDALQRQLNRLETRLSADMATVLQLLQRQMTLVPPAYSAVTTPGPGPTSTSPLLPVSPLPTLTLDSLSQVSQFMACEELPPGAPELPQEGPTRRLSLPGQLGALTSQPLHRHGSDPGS

## CN(C)c1cccc(Nc2cc(-c3ccccc3)nc(C3CCNCC3)n2)c1 [ARN22089, N1,N1-dimethyl-N3-(6-phenyl-2-(piperidin-4-yl)pyrimidin-4-yl)benzene-1,3-diamine]
hERG channel
  hERG channel targeting: does not target the hERG channel
[1]
  half-life at […]: 8.5 h
HT-1080
  IC50: 11 µM
NCI-H1573
  IC50: 24 µM
Colo 205
  IC50: 7 µM
MOLT-4
  IC50: 11 µM
SK-N-SH
  IC50: 8.1 µM
Ishikawa
  IC50: 8.5 µM
WM3248
  IC50: 4.52 µM
HL-60
  IC50: 8.1 µM
MKN-1
  IC50: 12 µM
U-937
  IC50: 3.5 µM
PC3
  IC50: 9.1 µM
AsPC-1
  IC50: 9.9 µM
A498
  IC50: 10 µM
NCI-H1437
  IC50: 16 µM
MCAS
  IC50: 4.6 µM
SK-ES-1
  IC50: 12 µM
KG-1
  IC50: 14 µM
HCT-15
  IC50: 8.7 µM
MDAMB435
  IC50: 10 µM
LOVO
  IC50: 7.8 µM
LnCap
  IC50: 14 µM
A375; A-375, read-out: IC50 A375
  IC50: 4.92 µM
A375; A-375, read-out: IC50 ARN22089
  IC50: 4.5 µM
SK-N-FI
  IC50: 11 µM
SK-OV3
  IC50: 7.6 µM
Saos-2 EC
  IC50: 9 µM
MiaPaCA2
  IC50: 8.3 µM
NCI-H838
  IC50: 12 µM
A172
  IC50: 5.8 µM
NCI-H1703
  IC50: 37 µM
COR-L279
  IC50: 12 µM
HEC-1-B
  IC50: 18 µM
RKO
  IC50: 3.9 µM
PK determination
  tolerability in experimental animals: well tolerated; also recorded: did not observe any overt toxicity
PK determination; 10 mg/kg PO
  oral bioavailability: low bioavailability
